Experiments:
[1] = UV absorption (UV-VIS spectra in 2-propanol, 1 mg/100 ml); type: physicochemical; design: UV absorbance at λmax (1 mg/100 ml): unit not given here; details: for UV-VIS λmax / UV absorbance at λmax (1 mg/100 ml): 1 mg/100 ml; for UV absorbance at λmax (1 mg/100 ml): value in brackets after λmax in the synthesis example; for UVB (280-320 nm) max. abs / UVB max. at λ [nm] / UVA (400-320 nm) max. abs / UVA max. at λ [nm]: solvent 2-Propanol, c 1 mg/100 ml
Description: FIG. 1: UV absorption spectra of 1-hydroxy-3-[(E)-3-(4-methoxyphenyl)-2-propenoyloxy]-2-oxopropane (Example 1a) and 1-hydroxy-3-(2-cyano-3,3-diphenylacryloyloxy)-2-oxopropane (Example 1b) (in each case measured in 2-propanol at a concentration of 1 mg/100 ml)
FIG. 2: UV absorption spectra of 3-[4-(3-hydroxy-2-oxopropoxymethyl)benzylidene]-4,7,7-trimethylbicyclo[2.2.1]heptan-2-one (Example 9), N-(2,3-dihydroxypropyl)-(E)-3-(4-methoxyphenyl)acrylamide (Example 10a) and N-(2,3-dihydroxypropyl)-N-methyl-(E)-3-(4-methoxyphenyl)acrylamide (Example 10b) (in each case measured in 2-propanol at a concentration of 1 mg/100 ml).

Structure (SMILES) | UV-VIS λmax [1] | UV absorbance at λmax (1 mg/100 ml) [1] | UVB (280-320 nm) max. abs [1] | UVB max. at λ [nm] [1] | also measured
CN(C)c1ccc(C(=O)NCC(=O)CO)cc1 [Example 22, N-(3-hydroxy-2-oxopropyl)-4-dimethylaminobenzamide] | 298.0 nm | 0.575 | – | – | –
CN(C)c1ccc(C(=O)OCC(O)CO)cc1 (stereo not drawn) [Example 5, 2,3-Dihydroxypropyl 4-dimethylaminobenzoate] | 310.0 nm | 1.01 | – | – | –
CCCCC(CC)COc1ccc(/C=C/C(=O)OCC(=O)COC(=O)/C=C/c2ccc(OCC(CC)CCCC)cc2)cc1 (stereo not drawn) [Example 23a] | 301.0 nm | 0.947 | – | – | melting point: 77 to 79 °C
CN(C)c1ccc(C(=O)NCC(=O)CO[Si](C)(C)C(C)(C)C)cc1 [Example 19, N-[3-(tert-butyldimethylsilyloxy)-2-oxopropyl]-4-dimethylaminobenzamide] | 312.0 nm | 0.713 | – | – | –
CN(C)c1ccc(C(=O)OCC(=O)CO)cc1 [Example 3, 3-Hydroxy-2-oxopropyl 4-dimethylaminobenzoate] | 311.0 nm | 1.213 | – | – | melting point: 129 to 131 °C
COc1ccc(/C=C/C(=O)NCC(O)CO[Si](C)(C)C(C)(C)C)cc1 (stereo not drawn) [Example 12, N-[3-(tert-butyldimethylsilyloxy)-2-hydroxypropyl]-(E)-3-(4-methoxyphenyl)acrylamide] | 291.0 nm | 0.481 | – | – | melting point: 107 to 109 °C
CN(Cc1ccc(/C=C2\C(=O)C3CCC2(C)C3(C)C)cc1)CC(O)CO[Si](C)(C)C(C)(C)C (stereo not drawn) [3-[4-({[3-(tert-butyldimethylsilyloxy)-2-hydroxypropyl]-methylamino}methyl)benzylidene]-4,7,7-trimethylbicyclo[2.2.1]heptan-2-one] | – | – | 0.545 | 297 nm | –
CCCCC(CC)COc1ccc(/C=C/C(=O)NCC(O)CO)cc1 (stereo not drawn) [drawing 89, N-(2,3-dihydroxypropyl)-(E)-[4-(2-ethylhexyloxyphenyl)]acrylamide] | – | – | 0.688 | 307.0 nm | –
CN(C)c1ccc(C(=O)OCC(O)CO[Si](C)(C)C(C)(C)C)cc1 (stereo not drawn) [Example 6, 3-(tert-Butyldimethylsilyloxy)-2-hydroxypropyl 4-dimethylaminobenzoate] | 310.0 nm | 1.01 | – | – | –
CN(C)c1ccc(C(=O)NCC(O)CO[Si](C)(C)C(C)(C)C)cc1 (stereo not drawn) [Example 15, N-[3-(tert-butyldimethylsilyloxy)-2-hydroxypropyl]-4-dimethylaminobenzamide] | 301.0 nm | 0.64 | – | – | melting point: 127 to 128 °C
CCCCC(CC)COc1ccc(/C=C/C(=O)NCC(=O)CO)cc1 (stereo not drawn) [drawing 90, N-(3-hydroxy-2-oxopropyl)-(E)-3-[4-(2-ethylhexyloxyphenyl)]acrylamide] | – | – | 0.706 | 307.5 nm | –
CCCCC(CC)COc1ccc(/C=C/C(=O)NCC(O)CO)cc1 (stereo not drawn) [Example 10c, N-(2,3-dihydroxypropyl)-(E)-[4-(2-ethylhexyloxyphenyl)]acrylamide] | 307.0 nm | 0.688 | – | – | –
CN(C)c1ccc(C(=O)NCC(O)CO[Si](C)(C)C(C)(C)C)cc1 (stereo not drawn) [drawing 84, N-[3-(tert-butyldimethylsilyloxy)-2-hydroxypropyl]-4-dimethylaminobenzamide] | – | – | 0.64 | 301.0 nm | –
COc1ccc(/C=C/C(=O)NCC(O)CO[Si](C)(C)C(C)(C)C)cc1 (stereo not drawn) [drawing 93] | – | – | 0.694 | 289 nm | –
COc1ccc(/C=C/C(=O)N(C)CC(O)CO)cc1 (stereo not drawn) [drawing 96] | – | – | 0.715 | 292 nm | –
CN(C)c1ccc(C(=O)NCC(O)CO)cc1 (stereo not drawn) [drawing 82] | – | – | 0.947 | 301.0 nm | –
CN(C)c1ccc(C(=O)NCC(=O)CO[Si](C)(C)C(C)(C)C)cc1 [drawing 86, N-[3-(tert-butyldimethylsilyloxy)-2-oxopropyl]-4-dimethylaminobenzamide] | – | – | 0.713 | 312.0 nm | –
COc1ccc(/C=C/C(=O)NCC(=O)CO)cc1 [drawing 81, N-(3-hydroxy-2-oxopropyl)-(E)-3-(4-methoxyphenyl)acrylamide] | – | – | 0.941 | 294.0 nm | –
CC12CCC(C(=O)/C1=C\c1ccc(CNCC(O)CO)cc1)C2(C)C (stereo not drawn) | – | – | 0.692 | 298.0 nm | –

Further lines, with some results ahead:

UV-VIS λmax [1] | UV absorbance at λmax (1 mg/100 ml) [1] | UVB (280-320 nm) max. abs [1] | UVB max. at λ [nm] [1] | Structure (SMILES) | also measured
– | – | 0.107 | 300.67 nm | COc1ccc(/C=C/C(=O)OCC(=O)COC(=O)/C=C/c2ccc(OC)cc2)cc1 [drawing 73] | –
294.0 nm | 0.941 | – | – | COc1ccc(/C=C/C(=O)NCC(=O)CO)cc1 [Example 20, N-(3-hydroxy-2-oxopropyl)-(E)-3-(4-methoxyphenyl)acrylamide] | melting point: 160 to 162 °C
310.0 nm | 0.86 | – | – | CN(C)c1ccc(C(=O)OCC2COC(C)(C)O2)cc1 (stereo not drawn) [Example 4, 4-(4-Dimethylaminophenylcarbonyloxymethyl)-2,2-dimethyl-1,3-dioxolane] | –
– | – | 0.881 | 302.0 nm | COc1ccc(/C=C/C(=O)OCC(O)CO)cc1 (stereo not drawn) | –
– | – | 0.615 | 298.0 nm | COC(CO)(COCc1ccc(/C=C2\C(=O)C3CCC2(C)C3(C)C)cc1)OC (stereo not drawn) [3-[4-(3-hydroxy-2,2-dimethoxypropoxymethyl)benzylidene]-4,7,7-trimethylbicyclo[2.2.1]heptan-2-one] | –
– | – | 0.796 | 306.0 nm | COc1ccc(/C=C/C(=O)OCC2COC(C)(C)O2)cc1 (stereo not drawn) | –
– | – | 0.893 | 311.33 nm | COc1ccc(/C=C/C(=O)OCC(=O)CO)cc1 [drawing 74] | –
307.0 nm | 1.140 | – | – | COc1ccc(/C=C/C(=O)OCC(=O)COC(=O)/C=C/c2ccc(OC)cc2)cc1 [Example 23, 1,3-Bis-[(E)-3-(4-methoxyphenyl)-2-propenoyloxy]-2-oxopropane] | melting point: 146 to 148 °C
– | – | 0.914 | 289 nm | COc1ccc(/C=C/C(=O)NCC(O)CO)cc1 (stereo not drawn) [drawing 94] | –
– | – | 0.537 | 287.9 nm | O=C(c1ccccc1)c1ccc(OCC(O)CO)cc1O (stereo not drawn) | UVA (400-320 nm) max. abs [1]: 0.363; UVA max. at λ [nm] [1]: 327.5 nm
– | – | 0.575 | 298.0 nm | CN(C)c1ccc(C(=O)NCC(=O)CO)cc1 [drawing 85, N-(3-hydroxy-2-oxopropyl)-4-dimethylaminobenzamide] | –
– | – | 0.874 | 296 nm | CC12CCC(C(=O)/C1=C\c1ccc(COCC(=O)CO)cc1)C2(C)C (stereo not drawn) [3-[4-(3-hydroxy-2-oxopropoxymethyl)benzylidene]-4,7,7-trimethylbicyclo[2.2.1]heptan-2-one] | –
– | – | 1.213 | 311.0 nm | CN(C)c1ccc(C(=O)OCC(=O)CO)cc1 [drawing 83, 3-Hydroxy-2-oxopropyl 4-dimethylaminobenzoate] | –
– | – | 0.031 | 304.0 nm | N#CC(C(=O)OCC(=O)COC(=O)C(C#N)=C(c1ccccc1)c1ccccc1)=C(c1ccccc1)c1ccccc1 [drawing 78, 1,3-Bis-(2-cyano-3,3-diphenylacryloyloxy)-2-oxopropane] | –
– | – | 0.473 | 286.1 nm | CC1(C)OCC(COc2ccc(C(=O)c3ccccc3)c(O)c2)O1 (stereo not drawn) | UVA (400-320 nm) max. abs [1]: 0.312; UVA max. at λ [nm] [1]: 328.3 nm
– | – | 0.375 | 303.0 nm | N#CC(C(=O)OCC(=O)CO)=C(c1ccccc1)c1ccccc1 [drawing 77, 1-Hydroxy-3-(2-cyano-3,3-diphenylacryloyloxy)-2-oxopropane] | –
– | – | 0.711 | 296 nm | CN(Cc1ccc(/C=C2\C(=O)C3CCC2(C)C3(C)C)cc1)CC(O)CO (stereo not drawn) [3-(4-{[(2,3-Dihydroxypropyl)methylamino]methyl}benzylidene)-4,7,7-trimethylbicyclo[2.2.1]heptan-2-one] | –
– | – | 0.936 | 292.00 nm | COc1ccc(/C=C/C(=O)NCC(O)CO)cc1 (stereo not drawn) [drawing 75] | –

Source: patent publication US7863478B2, “UV filters” (Merck Patent GmbH, priority 2004, dated 2011)
